Data set [1] concerns cytokines and chemokines in the lungs. As to the kind of experiment: Xenograft stage 4 metastasized breast cancer animal model, lung cytokines and pathology. The data set is classed as in vivo. The text has this: In a xenograft stage 4 metastasized breast cancer animal model, Compound I decreased production of cytokines (tumor necrosis factor alpha [TNF-α] and interleukin-6 [IL6]) and chemokines (CXCL10, CCL2, CCL3, CCL5), and were correlated with migration of Natural Killer cells and macrophages and observed in the lungs.

Data set [2] has as its system SARS-CoV-2. As to the kind of experiment: Antiviral activity against SARS-CoV-2 in Calu-3 cells. The data set is classed as cell-based.
For data set [3], the system named is Class I HDAC (HDAC1, HDAC2, HDAC3, HDAC8). As to the kind of experiment: Class I HDAC expression/inhibition by western blotting in PANC cells. The data set is classed as cell-based, Human. The method, then: Class I HDAC expression during pancreatic tumorigenesis was next examined. Briefly different concentration of Compound I were added and incubated for 24 h. […] Inhibition of Class I HDACs is associated with the upregulation of histone H3 acetylation and p21 mRNA and protein expression which have associated with the anti-proliferative activity. It has also been reported that HDAC6 functions as a α-tubulin deacetylase, modulating tubulin stability. Because α-tubulin and histone H3 are mutual downstream targets of HDACs, the relationship between protein expression and function of molecules was further examined. The effects of Compound I on histone H3 acetylation in PANC cells using western blot analysis was studied.
(In general: In western blotting, separated proteins are transferred to a membrane and probed.)

The next data set relates to HUMSCs. As to the kind of experiment: Neuronal differentiation of human umbilical cord stem cells. The format is cell-based. As for the experimental part:
After treatment at 72 h, the ratio of neuron-like cells reached high, with the cell bodies contracted and the protuberances lengthened further. The MSCs retained this morphology for the duration of the induction.

For data set [4], the system named is SARS-CoV-2. As to the kind of experiment: Inactivation of SARS-CoV-2 upon direct exposure. The conditions noted are these: Severe acute respiratory syndrome coronavirus 2, read-out: 50% reduction (IC50), inactivation of SARS-CoV-2.
The next data set deals with PANC-1 xenograft. Kind of data set: PANC-1 xenograft mouse model. The format is in vivo. The method, then: Study Design: A PANC-1 xenograft mouse model was carried out according to the experimental design described in FIG. 21A. Tumor volume was monitored over a 30-day period upon administration of PBS alone (vehicle control), 25 mg/kg gemcitabine, and 10 mg/kg Compound I.

For the compound `COc1cc(/C=C/C(=O)/C=C/C=C/c2cc(OC)c(O)c(OC)c2)cc(OC)c1` [Compound I], in data set [1] (by day 7), the lung histopathology result is reported as “normal lung pathology without any pneumonitis observed”. Also, the “production of cytokines (TNF-α, IL6) and chemokines (CXCL10, CCL2, CCL3, CCL5)” value in data set [1] (in vivo) is “decreased”. Further, in the data set with SARS-CoV-2 [2] (Calu-3, 24 h p.i., RT-PCR), the “inhibition of intracellular SARS-CoV-2 RNA levels” value was “more than 95 % of control”. Further, the IC50 was 1500 nM with SARS-CoV-2 [2] (Severe acute respiratory syndrome coronavirus 2, Calu-3, read-out: average half-maximum effective concentration (IC50)); 5000 nM in the data set on SARS-CoV-2 [2] (Severe acute respiratory syndrome coronavirus 2, Calu-3, read-out: calculated IC50 (viral genomic RNA in supernatants, qRT-PCR)); 10 nM with SARS-CoV-2 [2] (Severe acute respiratory syndrome coronavirus 2, Calu-3 cultures, 0.1-5 μM, read-out: average IC50 (reduction in replication)); 10000 nM in the data set on SARS-CoV-2 [2] (Severe acute respiratory syndrome coronavirus 2, calu-3 cell line, replication, read-out: IC 50); 1000 nM with SARS-CoV-2 [4]. In the data set with SARS-CoV-2 [2] (calu-3, 10 μM Compound I treated cells), the “virus titer of treated cells” value is recorded as no more than 102 TCID50/ml. In addition, the “protein expression of Class I HDAC” value in data set [3] (24 h, western blotting, vs control p<0.05) is “decreased in a dose-dependent manner”. In addition, in data set [3] (PANC cells), the “inhibition of HDAC1, HDAC2, HDAC3 and HDAC8” value is recorded as “significantly inhibited”. In addition, the “Neuronal cell type formation” value in the data set on HUMSCs is reported as “induced”. Besides, the imaging studies entry in the data set with PANC-1 xenograft (10 mg/kg) is listed as “no detectable tumor”. In the data set with PANC-1 xenograft (day 5 to day 30, 25 mg/kg gemcitabine, 10 mg/kg Compound I), the tumor volume entry is reported as “decrease”. For the same compound, in the data set with PANC-1 xenograft (mouse, in vivo), the survival result was “improved survival”.

These data come from patent US20230270692A1, “COMPOUNDS FOR CHRONIC DISORDERS” (Pillai Universal LLC, priority 2020, published 2023).
